Tested on: TNF-α
Assay: TNF-α mRNA expression (qPCR) in zebra fish animal model of DSS-induced inflammatory bowel disease
Format: in vivo, zebra fish (Danio rerio: AB)
Conditions: FIG. 5; for expression amount of TNF-α compared to DSS model group: zebra fish larvae, 0.5% DSS, 5 hours treatment, Chemical formula 1 0.3 μM and 1 μM
Experimental: As a zebra fish animal model of inflammatory bowel disease, wild-type zebra fish (Danio rerio: AB) was used, which was kept in an exclusive breeding facility at conditions including light/dark cycle of 14 hours/10 hours and temperature of 28° C. All the animal experiments were carried out according to the protocol of Ethics Committee for Animal Expectation, Healinno-LS (Registration No.: AEC-20210720-0001), and all the materials were sterilized first before they are used for experiment.
According to a treatment with 0.5% DSS (dextran sulfate sodium, M.W. 36,000-50,000, #160110, MP), which induces “ulcerative colitis” as inflammatory bowel disease by creating a damage in colonic epithelial cells, a zebra fish was induced to have inflammatory bowel disease. Then, by threating the zebra fish with the compound represented by Chemical formula 1 of the present invention at different concentrations (0.3 μM and 1 μM), inhibitory activity on inflammatory bowel disease was examined.
As a zebra fish animal model of DSS-induced ulcerative colitis, zebra fish larvae 3 days after fertilization (3 dpf; days post fertilization) were used. 3 dpf zebra fish larvae were added to a 24-well plate, i.e., 20 larvae per well, and treated with 0.5% DSS to induce ulcerative colitis. After keeping them to 6 dpf zebra fish larva period, DSS was removed, and then they were treated for 5 hours with the compound represented by Chemical formula 1 of the present invention.
The zebra fish larvae which have been treated with the compound represented by Chemical formula 1 of the present invention were then added with TRIzol reagent (300 μl), and then homogenized by using a tissue homogenizer (G20, GINKO). Homogenized zebra fish larvae were maintained for 5 minutes at room temperature, and then treated with chloroform (60 μl). After removing proteins and cell debris, the mixture was centrifuged for 15 minutes at 12,000×g, 4° C. […] Purity and concentration were measured by using a microplate reader (FLUOstar omega, BMG Labtech), and the extracted total RNA was kept at −80° C. […]

| Structure (SMILES) | reduction of transcription amount of proinflammatory cytokines (zebra fish DSS model, TNF-α and IL-1β, compared with 5-ASA and prednisolone) | expression amount of TNF-α compared to DSS model group |
| --- | --- | --- |
| COC(=O)C[C@H](OC(=O)/C=C/c1ccc(O)c(O)c1)c1ccc(O)c(O)c1 [Compound 1, 3-[3,4-dihydroxyphenyl]acrylic acid 1-[3,4-dihydroxyphenyl]-2-methoxycarbonylethyl ester] | much lower concentration than 5-ASA and prednisolone | statistically significantly lower |
| Nc1ccc(O)c(C(=O)O)c1 [Compound 5-ASA, 5-aminosalicylic acid, reference compound] |  | statistically significantly lower |

Reference: US20240216317A1, “COMPOSITION FOR PREVENTING, AMELIORATING OR TREATING INFLAMMATORY BOWEL DISEASE COMPRISING COMPOUND ISOLATED FROM ISODON EXCISUS AS EFFECTIVE COMPONENT” (HEALINNOLS INC., priority 2022, published 2024)
